Measurements taken from ChEMBL document CHEMBL1909046, “DrugMatrix in vitro pharmacology data”.

Key:
[1] = DRUGMATRIX: GABAA, Flunitrazepam, Central radioligand binding (ligand: [3H] Flunitrazepam); format: cell membranes, Rattus norvegicus, Wistar, Brain, Membrane; details: Not Active = under 50% inhibition at 10 µM
[2] = DRUGMATRIX: Glutamate, AMPA radioligand binding (ligand: [3H] AMPA); format: cell membranes, Rattus norvegicus, Wistar, Cerebral cortex, Membrane; details: Not Active = under 50% inhibition at 10 µM
Cytochrome P450 2C9 = Cytochrome P450 2C9 (Homo sapiens, UniProt P11712); details: bti-tn-5b1-4; note: in other assays of this panel Not Active means under 50% inhibition at 10 µM
Cytochrome P450 2C9, sequence (P11712 whole entry): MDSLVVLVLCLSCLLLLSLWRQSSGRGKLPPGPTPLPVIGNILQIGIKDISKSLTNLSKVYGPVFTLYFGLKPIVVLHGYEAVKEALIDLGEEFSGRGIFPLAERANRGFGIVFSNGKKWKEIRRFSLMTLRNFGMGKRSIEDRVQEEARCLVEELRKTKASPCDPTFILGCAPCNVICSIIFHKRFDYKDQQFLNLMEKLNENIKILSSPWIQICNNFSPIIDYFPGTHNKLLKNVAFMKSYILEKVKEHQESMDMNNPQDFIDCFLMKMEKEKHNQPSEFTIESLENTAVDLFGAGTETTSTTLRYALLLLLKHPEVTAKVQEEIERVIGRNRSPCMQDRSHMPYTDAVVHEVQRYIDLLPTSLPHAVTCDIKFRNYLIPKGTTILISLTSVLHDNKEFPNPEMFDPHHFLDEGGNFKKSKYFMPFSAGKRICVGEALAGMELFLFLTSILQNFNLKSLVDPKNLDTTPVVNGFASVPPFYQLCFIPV

Androgen receptor = target: T1, Androgen receptor (Rattus norvegicus, UniProt P15207); note: in other assays of this panel Not Active means under 50% inhibition at 10 µM
T1 sequence (P15207 whole entry): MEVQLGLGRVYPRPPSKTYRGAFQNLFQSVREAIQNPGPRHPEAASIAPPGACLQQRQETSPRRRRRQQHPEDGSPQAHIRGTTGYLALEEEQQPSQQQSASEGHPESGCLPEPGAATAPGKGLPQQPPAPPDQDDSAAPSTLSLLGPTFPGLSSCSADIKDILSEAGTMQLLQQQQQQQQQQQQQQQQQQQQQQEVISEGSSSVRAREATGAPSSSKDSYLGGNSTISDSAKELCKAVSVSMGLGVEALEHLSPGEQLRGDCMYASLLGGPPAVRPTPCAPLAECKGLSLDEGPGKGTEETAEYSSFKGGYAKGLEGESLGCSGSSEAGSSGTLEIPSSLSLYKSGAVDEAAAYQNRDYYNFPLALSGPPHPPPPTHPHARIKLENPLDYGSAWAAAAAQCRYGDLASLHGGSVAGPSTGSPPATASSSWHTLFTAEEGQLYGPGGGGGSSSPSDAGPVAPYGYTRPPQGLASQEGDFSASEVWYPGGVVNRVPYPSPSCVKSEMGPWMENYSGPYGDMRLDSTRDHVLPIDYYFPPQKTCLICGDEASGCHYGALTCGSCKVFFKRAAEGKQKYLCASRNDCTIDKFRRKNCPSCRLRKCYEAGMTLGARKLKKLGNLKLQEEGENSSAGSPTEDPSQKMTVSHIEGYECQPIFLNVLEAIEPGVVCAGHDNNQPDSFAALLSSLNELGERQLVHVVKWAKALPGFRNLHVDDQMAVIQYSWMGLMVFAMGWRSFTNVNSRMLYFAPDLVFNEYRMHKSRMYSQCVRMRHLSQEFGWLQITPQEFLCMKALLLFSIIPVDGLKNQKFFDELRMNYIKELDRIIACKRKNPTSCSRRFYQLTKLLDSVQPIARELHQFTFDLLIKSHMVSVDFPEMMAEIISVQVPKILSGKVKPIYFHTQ

O=C(Oc1ccccc1C(=O)O)c1ccccc1O [SALSALATE]
Not Active: IC50 [1] | Ki [1] | IC50 [2] | Ki [2] | IC50 (Cytochrome P450 2C9) | Ki (Cytochrome P450 2C9)

CNC1(c2ccccc2Cl)CCCCC1=O (stereo not given) [KETAMINE]
Not Active: IC50 [1] | Ki [1] | IC50 [2] | Ki [2] | IC50 (Cytochrome P450 2C9) | Ki (Cytochrome P450 2C9)

Fc1ccc(C(c2ccc(F)cc2)N2CCN(C/C=C/c3ccccc3)CC2)cc1 [FLUNARIZINE]
Not Active: IC50 (Cytochrome P450 2C9) | Ki (Cytochrome P450 2C9)

CC(C)NCC(O)c1ccc(O)c(O)c1 (stereo not given) [ISOPROTERENOL]
Not Active: IC50 [1] | Ki [1] | IC50 [2] | Ki [2] | IC50 (Cytochrome P450 2C9) | Ki (Cytochrome P450 2C9)

Cc1cccc(C)c1OCC(C)N (stereo not given) [MEXILETINE]
Not Active: IC50 [1] | Ki [1] | IC50 [2] | Ki [2] | IC50 (Cytochrome P450 2C9) | Ki (Cytochrome P450 2C9)

MANGANESE CHLORIDE ANHYDROUS
Not Active: IC50 [1] | Ki [1] | IC50 [2] | Ki [2] | IC50 (Androgen receptor) | Ki (Androgen receptor) | IC50 (Cytochrome P450 2C9) | Ki (Cytochrome P450 2C9)

CCN(CC)CCNC(=O)c1cc(S(C)(=O)=O)ccc1OC [TIAPRIDE]
Not Active: IC50 [1] | Ki [1] | IC50 [2] | Ki [2] | IC50 (Cytochrome P450 2C9) | Ki (Cytochrome P450 2C9)

COc1c2occc2cc2ccc(=O)oc12 [METHOXSALEN]
Not Active: IC50 [1] | Ki [1] | IC50 [2] | Ki [2] | IC50 (Androgen receptor) | IC50 (Cytochrome P450 2C9) | Ki (Cytochrome P450 2C9)

O.O.O.O.O.O.[Cl-].[Cl-].[Sr+2] [STRONTIUM CHLORIDE HEXAHYDRATE]
Not Active: IC50 [1] | Ki [1] | IC50 [2] | Ki [2] | IC50 (Cytochrome P450 2C9) | Ki (Cytochrome P450 2C9)

COc1ccc(CCN(C)CCCC(C#N)(c2ccc(OC)c(OC)c2)C(C)C)cc1OC (stereo not given)
Not Active: IC50 [1] | Ki [1] | IC50 [2] | Ki [2]

Clc1ccccc1CN1CCc2sccc2C1 [TICLOPIDINE]
Not Active: IC50 [1] | Ki [1] | IC50 [2] | Ki [2] | IC50 (Androgen receptor) | IC50 (Cytochrome P450 2C9) | Ki (Cytochrome P450 2C9)

CC(C)Oc1ccc2c(=O)c(-c3ccccc3)coc2c1 [IPRIFLAVONE]
Not Active: IC50 [1] | Ki [1] | IC50 [2] | Ki [2] | IC50 (Cytochrome P450 2C9) | Ki (Cytochrome P450 2C9)

COc1cc2nc(N3CCN(C(=O)C4CCCO4)CC3)nc(N)c2cc1OC (stereo not given) [TERAZOSIN]
Not Active: IC50 [1] | Ki [1] | IC50 [2] | Ki [2] | IC50 (Cytochrome P450 2C9) | Ki (Cytochrome P450 2C9)

NC1CCN(c2nc3c(cc2F)c(=O)c(C(=O)O)cn3-c2ccc(F)cc2F)C1 (stereo not given) [TOSUFLOXACIN]
Not Active: IC50 [1] | Ki [1] | IC50 [2] | Ki [2] | IC50 (Androgen receptor) | IC50 (Cytochrome P450 2C9) | Ki (Cytochrome P450 2C9)

SODIUM ORTHOVANAD
Not Active: IC50 [1] | Ki [1] | IC50 [2] | Ki [2] | IC50 (Androgen receptor) | Ki (Androgen receptor) | IC50 (Cytochrome P450 2C9) | Ki (Cytochrome P450 2C9)

Cc1c(C)c2c(c(C)c1O)CCC(C)(CN1CCN(c3cc(N4CCCC4)nc(N4CCCC4)n3)CC1)O2 (stereo not given)
Not Active: IC50 [1] | Ki [1] | IC50 [2] | Ki [2] | IC50 (Androgen receptor)

O=C(O)c1cn(-c2ccc(F)cc2)c2cc(N3CCNCC3)c(F)cc2c1=O [SARAFLOXACIN]
Not Active: IC50 [1] | Ki [1] | IC50 [2] | Ki [2] | IC50 (Cytochrome P450 2C9) | Ki (Cytochrome P450 2C9)

Nc1cc(N2CCCCC2)nc(N)[n+]1[O-] [MINOXIDIL]
Not Active: IC50 [1] | Ki [1] | IC50 [2] | Ki [2] | IC50 (Androgen receptor) | IC50 (Cytochrome P450 2C9) | Ki (Cytochrome P450 2C9)

CC(C)NCC(O)c1ccc(NS(C)(=O)=O)cc1 (stereo not given) [SOTALOL]
Not Active: IC50 [1] | Ki [1] | IC50 [2] | Ki [2] | IC50 (Cytochrome P450 2C9) | Ki (Cytochrome P450 2C9)

CS(=O)(=O)c1ccc([C@@H](O)[C@@H](CO)NC(=O)C(Cl)Cl)cc1 [THIAMPHENICOL]
Not Active: IC50 [1] | Ki [1] | IC50 [2] | Ki [2] | IC50 (Cytochrome P450 2C9) | Ki (Cytochrome P450 2C9)

CN(C)CCOC(c1ccccc1)c1ccccc1 [DIPHENHYDRAMINE]
Not Active: IC50 (Androgen receptor)

CCN1CCC[C@H]1CNC(=O)c1cc(S(N)(=O)=O)ccc1OC [LEVOSULPIRIDE]
Not Active: IC50 [1] | Ki [1] | IC50 [2] | Ki [2] | IC50 (Androgen receptor) | IC50 (Cytochrome P450 2C9) | Ki (Cytochrome P450 2C9)

CCN(CC)CC(=O)Nc1c(C)cccc1C [LIDOCAINE]
Not Active: IC50 [1] | Ki [1] | IC50 [2] | Ki [2] | IC50 (Androgen receptor)

CC(c1cc2ccccc2s1)N(O)C(N)=O (stereo not given) [ZILEUTON]
Not Active: IC50 [1] | Ki [1] | IC50 [2] | Ki [2] | IC50 (Androgen receptor) | IC50 (Cytochrome P450 2C9) | Ki (Cytochrome P450 2C9)

CCCCNc1ccc(C(=O)OCCN(C)C)cc1 [TETRACAINE]
Not Active: IC50 [1] | Ki [1] | IC50 [2] | Ki [2]

CNCCC(Oc1ccc(C(F)(F)F)cc1)c1ccccc1 (stereo not given) [FLUOXETINE]
Not Active: IC50 (Cytochrome P450 2C9) | Ki (Cytochrome P450 2C9)

CC[C@@H](C(=O)[C@@H](C)[C@@H](O)[C@H](C)[C@@H]1O[C@@H]([C@@H](CC)C(=O)O)CC[C@@H]1C)[C@H]1O[C@]2(C=C[C@@H](O)[C@]3(CC[C@@](C)([C@H]4CC[C@](O)(CC)[C@H](C)O4)O3)O2)[C@H](C)C[C@@H]1C [SALINOMYCIN]
Not Active: IC50 [1] | Ki [1] | IC50 [2] | Ki [2] | IC50 (Cytochrome P450 2C9) | Ki (Cytochrome P450 2C9)

Cc1ccc(NC(=O)c2ccc(CN3CCN(C)CC3)cc2)cc1Nc1nccc(-c2cccnc2)n1 [IMATINIB]
Not Active: IC50 (Androgen receptor) | IC50 (Cytochrome P450 2C9) | Ki (Cytochrome P450 2C9)

CC(C)Cc1ccc([C@@H](C)C(=O)O)cc1 [(R)-IBUPROPHEN]
Not Active: IC50 [1] | Ki [1] | IC50 [2] | Ki [2] | IC50 (Cytochrome P450 2C9) | Ki (Cytochrome P450 2C9)

O=C1C(CC[S+]([O-])c2ccccc2)C(=O)N(c2ccccc2)N1c1ccccc1 (stereo not given) [SULFINPYRAZONE]
Not Active: IC50 [1] | Ki [1] | IC50 [2] | Ki [2] | IC50 (Cytochrome P450 2C9) | Ki (Cytochrome P450 2C9)

CO[C@H]1/C=C/O[C@@]2(C)Oc3c(C)c(O)c4c(O)c(c(/C=N/N5CCN(C6CCCC6)CC5)c(O)c4c3C2=O)NC(=O)/C(C)=C\C=C\[C@H](C)[C@H](O)[C@@H](C)[C@@H](O)[C@@H](C)[C@H](OC(C)=O)[C@@H]1C [RIFAPENTINE]
Not Active: IC50 [1] | Ki [1] | IC50 [2] | Ki [2] | IC50 (Cytochrome P450 2C9) | Ki (Cytochrome P450 2C9)

Cn1c(=O)c2nc[nH]c2n(C)c1=O.O [THEOPHYLLINE]
Not Active: IC50 [1] | Ki [1] | IC50 [2] | Ki [2]

CCCCOc1cc(CC2CNC(=O)N2)ccc1OC (stereo not given) [RO-201724]
Not Active: IC50 [1] | Ki [1] | IC50 [2] | Ki [2] | IC50 (Androgen receptor) | IC50 (Cytochrome P450 2C9) | Ki (Cytochrome P450 2C9)
